From patent US7041639B2, “Depsipeptide and congeners thereof for use as immunosuppressants” (XCYTE Therapies, Inc., priority 1999, dated 2006)
Several values for one entry are separate records, joined by “and”; a condition that tells them apart may be missing. Identical values can stand only once.

Experiments:
[1] = system: activated T-cells (peripheral blood lymphocytes); experiment: Proliferation inhibition assay, CFDA-SE staining; type: cell-based, human; conditions: added at time 0 or 24, 72, 120 hours post-stimulation with 3×28 beads; day 6; FIG. 7
Protocol: Peripheral blood lymphocytes are prepared as described above, stimulated with 3×28 beads and stained with carboxyfluorescein diacetate succinimidyl ester (CFDA-SE) at day 6 post stimulation. Cell stimulation was carried out as indicated above and the cells were washed twice with PBS and resuspended in media and incubated with CFDA-SE (Molecular Probes, OR). After about 10 minutes of staining, the cells are washed with media and FPS and dye incorporation was measured. FR901228 was added at various time points post-stimulation, at time 0 or at 24, 72, and 120 hours post-stimulation. FIG. 7 depicts flow data generated by CFDA-SE staining. The y-axis sets forth mean fluoresence intensity, which relates to the inverse of cell growth.

[2] = system: activation markers on CD4 cells; experiment: Activation marker assays by flow cytometry; type: cell-based, human
From the text: The effect of FR901228 on the induction of various activation markers on CD4 cells is studied. In this regard, cells are labeled with one or more of the following antibodies: anti-human CD4 Ab (Immunotech, Fullerton, Calif.), FITC-coupled anti-human CD11a Ab (Pharmingen), FITC-coupled anti-human CD26 Ab (Pharmingen), FITC-coupled anti-human CD49d Ab (Coulter), FITC-coupled anti-human CD54 Ab (Pharmingen and Becton Dickinson), FITC-coupled anti-human CD95 Ab (Pharmingen), FITC-coupled anti-human CD134 Ab (Pharmingen), FITC-coupled anti-human CD25 Ab (Becton Dickinson, Fullerton, Calif.), FITC-coupled anti-human CD69 Ab (Becton Dickinson), FITC- or PE-coupled anti-human CD154 Ab (Becton Dickinson), or FITC- or PE- coupled IgG1 isotype control Ab. Cells, 2×10^5 are labeled for 20 minutes at 4° C. with 2 μl of each antibody in a final volume of 30 μl, washed and resuspended in 1% parformaldehyde (Sigma, St. Louis, Mo.). […] In contrast, CD69 induction is not affected by 100 ng/ml FR901228 (FIG. 5C).

[3] = system: CD154 promoter in Jurkat T-cells; experiment: GFP reporter under control of the CD154 promoter; type: cell-based; conditions: 24 hours 3×28 beads; 0, 10, 50, 100 ng/ml; FIG. 11
Protocol: In this experiment Jurkat T-cells were stabily transfected with a vector construct (p-EGFP1, Clonetech) wherein the nucleotide sequence encoding green fluorescent protein was operably linked to the CD154 promoter cloned from Jurkat cells. Following selection of cells containing the vector of interest, the cells were subjected to stimulation for 24 hours with 3×28 beads in the presence of varying concentrations (0 to 100 ng/ml) of FR901228. Fluorescence was then detected using flow cytometry.

NODSCID mice = experiment: Diabetes onset in NODSCID mice given NOD spleen cells; type: in vivo; conditions: 0.5 mg/kg i.p. every other day
Protocol: FR901228 was dissolved in 10% DMSO in PBS and were administered i.p. to NOD or NODSCID mice every other day. Controls contained only the DMSO excipient (10% DMSO in PBS). […] 0.5 mg/kg of FR901228 was administered at each treatment to twenty animals (ten NOD animals and ten NODSCID animals). Every two weeks the number of mice in each treatment group that had become diabetic was evaluated by measuring blood glucose levels using a glucometer at bi-weekly intervals. A reading of more than 200 mg/dl of blood glucose on two consecutive observations was considered indicative of frank diabetes.

[4] = system: IL-2 production by activated CD4 cells; experiment: IL-2 ELISA of supernatants; type: cell-based, human; conditions: ELISA after 24 h of 3×28 bead stimulation of purified CD4 cells; FIG. 6
Protocol: Cells are prepared as described above. Supernatants from cells stimulated 24 h are subjected to an IL-2 or TNF-α enzyme linked immunosorbant assay (ELISA) according to the manufacturer's instructions (Biosource International, Sunnyvale, Calif.).
To study the mechanism behind FR901228 inhibition of CD4 cell proliferation, IL-2 and TNF-α production by activated CD4 cells was analyzed. […] The reason for this difference is currently unknown.

CD154 transcript = experiment: RT-PCR of the CD154 transcript; type: cell-based; conditions: 18 hours of stimulation with 3×28 beads; data not shown
Protocol: In separate experiments, RT-PCR of the CD154 transcript was carried out after 18 hours of stimulation with 3×28 beads and various amounts of FR901228. […] Experiments were also conducted using CD4 cells incubated with anti-sense constructs of c-myc. After stimulation by 3×28 beads for twenty-four hours, the anti-sense c-myc construct reduced CD154 expression as measured by flow cytometry by about 50% as compared to controls including:no construct, sense or transfection with a scrambled c-myc construct (data not shown). Accordingly, FR901228 and like compounds may target the activity of c-myc and its induction of CD154 as one mechanism of immune suppression.

bulk phosphorylation = experiment: Phosphotyrosine Western blots; type: cell-based
From the text: FR901228 has a number of features that aid its ability to act as a potent immunosuppressant. […] Thus, these observations indicate that compounds of structure (I) affect the T-cell activation pathway at multiple points, thus allowing activation to proceed into early stages, such as phosphorylation, but preventing subsequent events of activation and proliferation.

[5] = system: Haras transfected mouse fibroblasts (NIH-3T3); conditions: background statement; cited from earlier work
[6] = 3×28 beads, 20 ng/ml, FIGS. 8A–8B

Structure (SMILES): C/C=C1\NC(=O)[C@H]2CSSCC/C=C/[C@H](CC(=O)N[C@H](C(C)C)C(=O)N2)OC(=O)[C@H](C(C)C)NC1=O [FR901228]
- cell growth of activated T-cells (CFDA-SE mean fluorescence intensity) [1]: inhibited
- CD69 induction ([2]; 100 ng/ml, FIG. 5C): not affected
- CD69 induction or activation induced downregulation of CD62L [2, 6]: no significant affect
- induction of CD25, CD134, CD137w, CD154, CD11a, CD54, and CD95 on CD4 T-cells [2, 6]: inhibition
- lowest concentration at which CD154 expression is strongly suppressed ([2]; after 3×28 bead stimulation, FIG. 5A): 10 ng/mL
- lowest concentration at which CD25 expression is strongly suppressed ([2]; after 3×28 bead stimulation, FIG. 5B): 10 ng/mL
- induction of GFP expression under CD154 promoter [3]: only cells having 0 ng/ml of FR901228 showed induction of GFP expression
- delay of onset of frank diabetes versus excipient only (NODSCID mice; frank diabetes = more than 200 mg/dl on two consecutive observations): at least two
- blood glucose / status of single mouse, column 6 (5/9) (NODSCID mice; NODSCID, head 'age (wks.)' 6, one line per mouse): 261 mg/dL
- blood glucose / status of single mouse, (5/23) (NODSCID mice; NODSCID, head 'age (wks.)' 8, one line per mouse, 0.5 mg/kg): 547 mg/dL and 527 mg/dL
- blood glucose / status of single mouse, (6/6) (NODSCID mice; NODSCID, head 'age (wks.)' 10, one line per mouse, 0.5 mg/kg): 482 mg/dL and 526 mg/dL and 343 mg/dL and 317 mg/dL and 299 mg/dL and 412 mg/dL and 441 mg/dL and 494 mg/dL and 399 mg/dL and 285 mg/dL
- blood glucose / status of single mouse, (6/20) (NODSCID mice; NODSCID, head 'age (wks.)' 12, one line per mouse, 0.5 mg/kg): High (2×) and 566 mg/dl and 596 mg/dl and 568 mg/dl and 539 mg/dl and 338 mg/dl and 240 mg/dl and Dead and 576 mg/dl
- blood glucose / status of single mouse, 7/4 (NODSCID mice; NODSCID, head 'age (wks.)' 14, one line per mouse, 0.5 mg/kg): 536 mg/dl and 402 mg/dl and Dead (5×) and 494 mg/dl and 558 mg/dl
- blood glucose / status of single mouse, column 16 (7/18) (NODSCID mice; NODSCID, head 'age (wks.)' 16, one line per mouse): 571 mg/dL
- blood glucose / status of single mouse, column 18 (8/1) (NODSCID mice; NODSCID, head 'age (wks.)' 18, one line per mouse): Dead
- lowest concentration that markedly inhibits IL-2 production [4]: 10 ng/mL
- levels of CD154 expression by RT-PCR (CD154 transcript): reduced levels of CD154 expression with increasing amounts
- bulk phosphorylation (bulk phosphorylation): does not affect
- transformation of Haras transfected NIH-3T3 [5]: inhibit transformation
